In patent US9815854B2, “3-(3H-imidazo[4,5-B]pyridin-2-yl)-1H-pyrazolo[3,4-C]pyridine and therapeutic uses thereof” (Samumed, LLC, priority 2014, dated 2017) one finds IC50 and EC50 data, which are given here for ten compounds.

Each structure is given as a SMILES string.

Test [1] deals with Wnt activity (Sp5-Luc reporter, TCF/LEF binding sites) in SW480 colon carcinoma cells. Put plainly: Sp5-Luc Wnt reporter gene screening assay in SW480 colon carcinoma cells. The test is classed as cell-based, human. The following applies: Homo sapiens. In short, it runs like this: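 SW480 cells stably transduced with a lentiviral luciferase reporter driven by a Sp5 promoter with eight TCF/LEF sites were plated at 10,000/well in 10% FCS medium. Luminescence was normalised to DMSO and IC50 derived by four-parameter fit.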
In general terms: In a reporter assay the amount or activity of a reporter protein is the signal.

In test [2] the test system is primary human fibroblasts derived from IPF patients (LL29 cells). In words: Inhibition of the fibrotic process in TGF-β1-treated primary human fibroblasts from IPF patients (αSMA staining). The test is classed as cell-based. The following applies: Fibroblast, 96 h, TGF-β1 20 ng/mL, 4 days, read-out: Inhibition of fibrosis EC50. In short, it runs like this:
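IPF-derived LL29 lung fibroblasts, 1,500 per well in F12 with 1% FBS, treated with compound (10 μM to […], 0.1% DMSO) and TGF-β1 20 ng/mL for 4 days at 37 °C. αSMA-positive live cells imaged and normalised to TGF-β1 controls; EC50 by nonlinear regression over triplicate wells.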

As for `CCCC(=O)Nc1cncc(-c2cc3c(-c4nc5c(-c6cc(F)cc(CNS(C)(=O)=O)c6)ccnc5[nH]4)n[nH]c3cn2)c1` [Compound 433, N-(5-(3-(7-(3-Fluoro-5-(methylsulfonamidomethyl)phenyl)-3H-imidazo[4,5-b]pyridin-2-yl)-1H-pyrazolo[3,4-c]pyridin-5-yl)pyridin-3-yl)butyramide], in test [1], the IC50 (as a rule, the midpoint of a concentration-inhibition curve) is more than 10000 nM. Further, the EC50 – broadly, the midpoint of the concentration-response curve – in test [2] is not below 9990 nM.

For `CS(=O)(=O)NCc1cc(F)cc(-c2ccnc3[nH]c(-c4n[nH]c5cnc(-c6cncc(CNCc7ccccc7)c6)cc45)nc23)c1` [Compound 439, N-(3-(2-(5-(5-((Benzylamino)methyl)pyridin-3-yl)-1H-pyrazolo[3,4-c]pyridin-3-yl)-3H-imidazo[4,5-b]pyridin-7-yl)-5-fluorobenzyl)methanesulfonamide], in test [1], the IC50 was more than 10000 nM. For the same compound, the EC50 in test [2] is not above 9 nM.

`CS(=O)(=O)NCc1cc(F)cc(-c2ccnc3[nH]c(-c4n[nH]c5cnc(-c6cncnc6)cc45)nc23)c1` [Compound 442, N-(3-Fluoro-5-(2-(5-(pyrimidin-5-yl)-1H-pyrazolo[3,4-c]pyridin-3-yl)-3H-imidazo[4,5-b]pyridin-7-yl)benzyl)methanesulfonamide] gave an IC50 in test [1] of more than 10000 nM. Further, in test [2], the EC50 was not below 9990 nM.

Compound `CC(C)Nc1cncc(-c2cc3c(-c4nc5c(-c6cc(F)cc(NCCN(C)C)c6)ccnc5[nH]4)n[nH]c3cn2)c1` [Compound 454, N^1-(3-Fluoro-5-(2-(5-(5-(isopropylamino)pyridin-3-yl)-1H-pyrazolo[3,4-c]pyridin-3-yl)-3H-imidazo[4,5-b]pyridin-7-yl)phenyl)—N^2,N^2-dimethylethane-1,2-diamine] had a 50% inhibitory concentration (IC50) in test [1] of 94.7 nM. For the same compound, in test [2], the EC50 was determined as 746 nM.

Consider `CN(C)CCNc1cc(F)cc(-c2ccnc3[nH]c(-c4n[nH]c5cnc(-c6cncc(CNCC7CCCC7)c6)cc45)nc23)c1` [Compound 466, N^1-(3-(2-(5-(5-(((Cyclopentylmethyl)amino)methyl)pyridin-3-yl)-1H-pyrazolo[3,4-c]pyridin-3-yl)-3H-imidazo[4,5-b]pyridin-7-yl)-5-fluorophenyl)—N2,N2-dimethylethane-1,2-diamine], for which the IC50 in test [1] came out at 1740 nM. Moreover, the 50% effective concentration (EC50) in test [2] was not above 9 nM.

`Fc1cccc(-c2ccnc3[nH]c(-c4n[nH]c5cnc(-c6cn[nH]c6)cc45)nc23)c1` [Compound 939, 3-(7-(3-Fluorophenyl)-3H-imidazo[4,5-b]pyridin-2-yl)-5-(1H-pyrazol-4-yl)-1H-pyrazolo[3,4-c]pyridine] returned an IC50 in test [1] of 198 nM. For the same compound, in test [2], the 50% effective concentration (EC50) turned out to be 14 nM.

Turning to `Cn1cc(-c2cc3c(-c4nc5c(-c6cccc(F)c6)ccnc5[nH]4)n[nH]c3cn2)cn1` [Compound 940, 3-(7-(3-Fluorophenyl)-3H-imidazo[4,5-b]pyridin-2-yl)-5-(1-methyl-1H-pyrazol-4-yl)-1H-pyrazolo[3,4-c]pyridine], the IC50 in test [1] came to 405 nM. For the same compound, the half-maximal effective concentration (EC50) in test [2] turned out to be 353 nM.

For `Cc1ncc(-c2cc3c(-c4nc5c(-c6cccc(F)c6)ccnc5[nH]4)n[nH]c3cn2)n1C` [Compound 941], the IC50 in test [1] is more than 10000 nM. Further, in test [2], the 50% effective concentration (EC50) was found to be 1000 nM.

`NC1CN(c2cncc(-c3cc4c(-c5nc6c(-c7cccc(F)c7)ccnc6[nH]5)n[nH]c4cn3)n2)C1` [Compound 942, 1-(6-(3-(7-(3-Fluorophenyl)-3H-imidazo[4,5-b]pyridin-2-yl)-1H-pyrazolo[3,4-c]pyridin-5-yl)pyrazin-2-yl)azetidin-3-amine] returned an IC50 in test [1] of 1490 nM. In test [2], the EC50 came to 1470 nM.

In turn, `CN(C)CCOc1cncc(-c2cc3c(-c4nc5c(-c6cccc(F)c6)ccnc5[nH]4)n[nH]c3cn2)c1` [Compound 947, 2-((5-(3-(7-(3-Fluorophenyl)-3H-imidazo[4,5-b]pyridin-2-yl)-1H-pyrazolo[3,4-c]pyridin-5-yl)pyridin-3-yl)oxy)-N,N-dimethylethan-1-amine] had a half-maximal inhibitory concentration (IC50) in test [1] of 1600 nM. Further, the EC50 in test [2] is not below 9990 nM.
